Laboratory results taken from patent US9789111B2, “Casein kinase 1δ (CK 1δ) inhibitors” (Electrophoretics Limited, priority 2010, dated 2017).

What was measured:
FGFR1 = FGFR1 (Homo sapiens, UniProt P11362); assay: kinase inhibition assay panel; type: biochemical
SH-SY5Y-TMHT cells = assay: Cell viability, MTT assay; type: cell-based, human; details: 6 h of treatment
Procedure: (§1) SH-SY5Y-TMHT cells are kept in culture medium (DMEM medium, 10% FCS, 1% NEAA, 1% L-Glutamine, 100 μg/ml Gentamycin, 300 μg/ml Geneticin G-418) for 2 days until 80-90% confluency. Cells are then differentiated in culture medium supplemented with 10 μM retinoic acid (RA) for 7 days changing medium every 2 to 3 days. Differentiated cells are seeded onto 6-well plates and 96-well plates at a cell density of 1.25×10^6 and 8×10^5 cells per well, respectively. On day 8 post-differentiation, the test compounds, reference compounds and vehicle control were added to the culture medium. After 6 h of compound exposure one plate of cells is subjected to a MTT assay to evaluate the effect of test and reference items on cell viability. Remaining wells are washed once with cold PBS and harvested in 300 μl RIPA-Buffer [50 mM Tris pH 7.4, 1% Nonident P40, 0.25% Na-deoxy-cholate, 150 mM NaCl, 1 mM EDTA, 1 μM NaF, 1 μM Na-ortho-vanadate, 80 mM Glycerophosphate, supplemented with freshly added protease (Calbiochem) and phosphatase (Sigma) inhibitor cocktail]. The cell suspension is transferred into a 1.5 ml tube and additionally lysed by sonication on ice. An aliquot of 20 μl is taken for the determination of the protein concentration (BCA assay). Subsequently, the lysates are snap frozen and stored at −80° C. until shipment.
To determine compound activity, it is necessary to control for potential cell toxicity of all molecules. Viability of cultures is determined by the MTT assay. This assay allows the measurement of the mitochondrial dehydrogenase activity which reduces yellow MTT to dark blue formazan crystals. Since this reaction is catalyzed in living cells only this assay is used for the determination of cell viability. MTT solution is added to each well in a final concentration of 0.5 mg/ml. After 2 hours, the MTT containing medium is aspired. Cells are lysed in 3% SDS and the formazan crystals are dissolved in isopropanol/HCl. Optical density is measured with a plate-reader at wavelength 570 nm. Cell survival rate is expressed as optical density (OD). Values are calculated as percent of control values.
Cell viability was determined in differentiated SH-SY5Y-TMHT cells by the MTT assay. Test and reference compounds were applied in a concentration range from 0.05 μM to 10 μM and from 0.1 μM to 1 μM, respectively. Upon 6 h of treatment, cell viability was evaluated. […] Statistical significance is indicated by *<0.05, **<0.01, ***<0.001 as determined by One-Way ANOVA. Data are shown from two independent experiments as group mean+/−SEM (n=8). […] Statistical significance is indicated by *<0.05, **<0.01, ***<0.001 as determined by One-Way ANOVA. […] Statistical significance is indicated by *<0.05, **<0.01, ***<0.001 as determined by One-Way ANOVA. […]

[1] = test system: Tau phosphorylation in SH-SY5Y-TMHT cells; assay: PhosphoTau SRM assay V2 and V3 (mass spectrometric); type: cell-based, human; details: for relative level of phosphorylation at each site (level of phosphopeptide) compared with vehicle treated controls / Tau phosphorylated at S396: 10 μM; for relative level of phosphorylation at each site (level of phosphopeptide) compared with vehicle treated controls: PhosphoTau SRM assay V2 and V3; for Tau phosphorylated at S396: vehicle control approximately 83%; for phosphorylation of Ser 396 within Tau proteins: FIG. 4
From the text: The PhosphoTau SRM V2 assay measures total tau and relative phosphorylation levels at five of the most commonly studied sites on Tau and was obtained from Proteome Sciences plc (Cobham, England). None of the sites in the V2 assay is uniquely phosphorylated by CK1δ and there is a possibility that compound-induced inhibition of phosphorylation measured by this method may be achieved through promiscuous inhibition of other kinases such as GSK3b and/or CDK5. […] Table 1 lists the various sites covered and the candidate Tau kinases reported in Hanger et al. (2007).
as §1, with “Differentiated cells are seeded onto 6-well plates and 96-well plates at a cell density of 1.25×10^6 and 8×10^5 cells per well, respectively.” left out
Stacking gels are loaded with approximately 100 μg total protein based on BCA assay results. Gels are run until the total protein content forms a single discrete band in the stacking gel. Each protein band is then cut from the gel and digested with either trypsin or Asp-N and analysed using the PhosphoTau SRM assay V2 or V3 respectively. Each assay method quantifies the phosphorylation in pre-clinical material using a triple quadrupole mass spectrometer (TSQ Vantage, Thermo Scientific, Hemel Hempstead, UK). Prior to SRM analysis phosphopeptides and pre-clinical samples were resolved by RP-chromatography (XBridge column, Waters, Manchester, UK) over a 9 minute gradient 0-30% ACN (buffer A; 0.1% FA, buffer B; ACN, 0.1% FA). Light and heavy versions for each peptide and phosphopeptide were monitored by several SRM transitions, using optimised S Lens values and collision energy settings. The area under the SRM LC peak was used to quantitate the amount of analyte present in each cell lysate as a single point reference to the signal of the heavy peptide spike.
An 11 point calibration curve of light phosphopeptides with each point in the curve spiked with 100 fmol heavy phosphopeptides was also produced to determine assay characteristics (LOD, LOQ, precision and accuracy). For each specified tau population, the endogenous level of each tau phosphopeptide was quantified against its calibration curve (0.25-1000 fmol on column). Prior to LC-SRM analysis each tau population was spiked with 100 fmol of the heavy phosphopeptide standards.

Chain of FGFR1 (P11362 22-822, species assumed): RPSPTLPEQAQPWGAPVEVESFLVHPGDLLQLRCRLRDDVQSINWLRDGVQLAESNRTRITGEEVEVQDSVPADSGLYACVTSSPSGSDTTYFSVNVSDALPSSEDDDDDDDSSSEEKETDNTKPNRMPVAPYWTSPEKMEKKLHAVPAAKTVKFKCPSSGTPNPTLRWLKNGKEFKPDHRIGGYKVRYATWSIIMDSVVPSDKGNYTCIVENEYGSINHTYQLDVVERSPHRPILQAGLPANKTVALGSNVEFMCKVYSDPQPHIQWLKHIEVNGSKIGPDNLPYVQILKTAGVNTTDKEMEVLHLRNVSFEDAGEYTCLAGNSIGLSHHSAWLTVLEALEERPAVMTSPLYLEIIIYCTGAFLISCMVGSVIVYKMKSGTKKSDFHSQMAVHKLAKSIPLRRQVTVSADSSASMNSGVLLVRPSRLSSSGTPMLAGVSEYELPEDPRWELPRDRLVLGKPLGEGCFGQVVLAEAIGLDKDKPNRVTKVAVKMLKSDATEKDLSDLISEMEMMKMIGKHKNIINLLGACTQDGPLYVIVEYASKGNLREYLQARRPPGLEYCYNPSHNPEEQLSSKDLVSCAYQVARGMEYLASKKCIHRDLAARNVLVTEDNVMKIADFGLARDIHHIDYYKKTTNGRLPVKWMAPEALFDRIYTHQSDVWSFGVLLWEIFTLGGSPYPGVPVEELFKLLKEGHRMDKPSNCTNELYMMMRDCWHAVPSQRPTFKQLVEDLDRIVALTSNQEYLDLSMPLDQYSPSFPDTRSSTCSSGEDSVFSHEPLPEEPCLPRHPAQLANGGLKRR

For `NC(=O)c1c(N)c(C(=O)c2ccc(F)cc2)n2ccccc12` [Compound 987, 2-amino-3-[(4-fluorophenyl)carbonyl]indolizine-1-carboxamide], the “inhibition of FGFR1” value (FGFR1) was “lower than 40%”, the “effect on the cell viability of SH-SY5Y-TMHT cells” value (SH-SY5Y-TMHT cells; 1 and 0.5 μM) was “no cytotoxic effect” and the “relative level of phosphorylation at each site (level of phosphopeptide) compared with vehicle treated controls” value [1] was “distinct reduction”. The “Tau phosphorylated at S396” value [1] was 24% and the “phosphorylation of Ser 396 within Tau proteins” value [1] was “inhibit phosphorylation”.
In the case of `Nc1ncc(-c2nc3ccccc3o2)c(-c2ccncc2)n1` [Compound 324, 5-(1,3-benzoxazol-2-yl)-4-(pyridin-4-yl)pyrimidin-2-amine], the “inhibition of FGFR1” value (FGFR1) is reported as “lower than 40%”, the “effect on the cell viability of SH-SY5Y-TMHT cells” value (SH-SY5Y-TMHT cells; 0.05 μM to 10 μM, vs vehicle control) is reported as “protective effect on the cell viability of SH-SY5Y-TMHT cells in a dose dependent manner” and the “protective effect on cell viability, statistical significance” value (SH-SY5Y-TMHT cells; 10 μM, One-Way ANOVA) is reported as “statistically significant”. For the same compound, the “relative level of phosphorylation at each site (level of phosphopeptide) compared with vehicle treated controls” value [1] was “distinct reduction”, the “Tau phosphorylated at S396” value [1] was 38% and the “phosphorylation of Ser 396 within Tau proteins” value [1] was “inhibit phosphorylation”.
